The subject of one series is EJ cells. Kind of series: Clonogenic assay of EJ cells. The following applies: for colony growth: EJ cells, 5 μM, grown for two weeks. Type of series: cell-based, human. As for the experimental part: Aliquots of one hundred EJ cells were plated out in petridish (60 mm size) and allowed to establish themselves. […] After exposure, the cells were grown for two weeks without changing the medium, and the number of cell colonies were counted.

In a further series the target is T1, HB-EGF (Homo sapiens, UniProt Q99075).
T1 construct: lyophilized HB-EGF protein (R&D Systems) was dissolved in either water or PBS buffer; purchased R&D Systems
T1 sequence (Q99075 63-148 limits assumed): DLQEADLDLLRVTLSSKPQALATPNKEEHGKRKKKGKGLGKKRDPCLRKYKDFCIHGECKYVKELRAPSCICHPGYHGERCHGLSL
Kind of series: Surface Plasmon Resonance (Biacore) binding to immobilized HB-EGF. As to conditions: SPR, compound 0.78 uM-50 uM, 25° C. The protocol:
A Biacore™ T100 (GE Healthcare, Uppsala, Sweden) was used to perform the Surface Plasmon Resonance (SPR) experiments. Sensor surface preparation and interaction analyses experiments were performed at 25° C. Prior to surface preparation, lyophilized HB-EGF protein (R&D Systems) was dissolved in either water or PBS buffer, at pH 7.4 and protein purity determined by Nu-Page 4-12% Bis-Tris gel in MOPS (3-(N-Morpholino)-propanesulfonic acid) buffer with a silver stain sensor preparation. HB-EGF was immobilized onto series S sensor chip CM4 via a standard N-ethyl-N′-(dimethyl-aminopropyl)carbodiimide/N-hydroxysuccinimide (EDC/NHS) amine coupling procedures. HB-EGF was diluted to 10 μg/mL in 10 mM sodium acetate pH5.5 for these procedures and resultant immobilization levels were 1000-1200 R.U.s. (R.U.: […]). Control surfaces were prepared similarly without protein derivatization and utilized as a reference surfaces for compound binding experiments. For compound interaction analyses, 0.01 M Hepes, pH7.4, 0.15 M NaCl, 0.05% Surfactant P20 and 5% DMSO was used. Compound samples were prepared by serial dilution in the range 0.78 uM-50 uM and flowed over control and derivatized surfaces for two minutes at a flow-rate of 80 μL/min. Zero concentration blank buffer cycles were included as negative control samples. […]
A general note: Surface plasmon resonance follows binding to a sensor surface in real time, without labels.

Series [1] deals with human cancer cells including breast cancer cells, bladder cancer cells, colon cancer cells, and lung cancer cells. The experiment in a line: Induction of cell death/apoptosis in a panel of human cancer cells. It counts as cell-based. From the text: We evaluated the ability of myrsinoic acid A (NP2008) to suppress cell growth and induce apoptosis in a panel of human cancer cells.

For series [2] the test system is unchanged. The experiment in a line: Tumor cell growth inhibition / viable cells by crystal-violet staining. Type of series: cell-based. An excerpt: The ability to suppress the growth of cancer cells was again seen at micromolar potencies (2.5-10 microM) and was concentration dependent. […] Viable cells are shown with crystal-violet cell staining.
For a further series, the system named is EJ cancer cells. Kind of series: Cytotoxicity assay (sulforhodamine B) in EJ cancer cells. Type of series: cell-based, human. The following applies: high and low confluent density, FIG. 10 legend. The protocol:
DMSO treatment was used as a control. Cells were stained with 0.4% sulforhodamine B three days after treatment. The results are shown in FIG. 10 A (cells started with higher confluent density) and FIG. 10 B (treatment experiments performed with lower confluent density). FIG. 10 C (low confluent) and FIG. 10 D show the result of a time curve experiment wherein aliquots of cells were stained at 24, 48, 72 and 96 hours.

Series [3] has as its system phospho-EGFR, phospho-Her3/ErbB3 and phospho-AKT. The experiment in a line: EGFR signaling in Iressa resistant SKBR3 cells by Western blot. The following applies: longer exposure (up to 96 hours). It counts as cell-based, human. As for the experimental part:
After treatment, total cell lysates were isolated and analyzed by Western blot analysis. The cells were evaluated for the presence of phospho-EGFR, phospho-Her3/ErbB3 and phospho-AKT.
(In general: Immunoblotting shows a protein as a band on a membrane.)

Series [4] relates to human normal (non-cancerous) breast epithelial cells. The experiment in a line: Toxicity in human primary normal (non-cancerous) cells. It counts as cell-based. As to conditions: 5 and 10 microM (Iressa 5 microM), 24-96 hours, Alamar Blue and cell death assays. The protocol: The cultures were subsequently stained with crystal-violet blue to evaluate the number of live cells. […] The number of dead cells was determined by Alamar Blue staining as well as Cyto-Flow-cell death assays from Promega (Madison, Wis.).
On the technique in general: The colour change of resazurin is a common sign of viable cells or microbes.

The test system of the next series is EJ cells or A549 cells. The experiment in a line: Lung or bladder tumor xenograft in nude mice. Type of series: in vivo. As to conditions: intraperitoneally 1 mg/kg every 48 hours for 42 days, vs control DMSO-administered mice. As for the experimental part: Lung or bladder tumor xenograft-bearing mice were treated with myrsinoic acid A to evaluate its in vivo anti-tumor effect. A total of 2×10^6 EJ cells or A549 cells were implanted subcutaneously on opposite site flanks in each nude/nude mice (Charles River, Mass.). There were six mice in each group. When tumor masses grew to ˜2-5 mm in diameter, myrsinoic acid A (NP2008) was administered intraperitoneally (total 1 mg/kg) every 48 hours for 42 days.

Another series has as its system mammary tumor. The experiment in a line: Spontaneous tumor model (MMTV-PyVT transgenic mice). The following applies: 5 mg/kg daily i.p. for 28 days, vs DMSO. Type of series: in vivo. An excerpt:
Mice with a spontaneous tumor model (MMTV-PvVT (FVB/N-Tg) transgenic mice; NCI repository) develop multifocal mammary tumor (from hyperplasia to metastatic) with a high incidence of metastasis. This mouse model has been widely used for the correlation studies of human cancer (Guy et al., Moll. Cell. Biol. 12: 954-961, 1992). In addition, this mouse model has been used to evaluate the effectiveness of potential drug therapies. Generally, due to aggressiveness of tumor growth and spread in this mouse-model, only a combination of chemo-drugs is effective in tumor growth inhibition in this mouse model.
MMTV-PyVT mice were maintained until mammary tumor size reached to 6 mm, and then treated with myrsinoic acid A (NP2008) (5 mg/kg) or vehicle (DMSO) daily by i.p. for 28 days.

For series [5] the following is noted: mouse ear inflammatory test; cited from earlier work.
Another series concerns DNA polymerases. As to conditions: cited from earlier work.
The next series deals with methioninase. As to conditions: cited from earlier work.
Setting [6] is: concentration dependent, wildtype or mutated p53 cell lines.

Here are results for 6 molecules from patent US8232318B2, “Approaches to treat cancer using HB-EGF inhibitors” (The General Hospital Corporation, priority 2009, dated 2012).

Entries after “also recorded” stand apart in the source; their conditions may differ.

Take `COc1cc2ncnc(Nc3ccc(F)c(Cl)c3)c2cc1OCCCN1CCOCC1` [Iressa, reference compound]: the colony growth entry with EJ cells was “did not show any colony growth”.

With `CC(C)=CCC/C(C)=C/Cc1cc(C(=O)O)cc(CC=C(C)C)c1O` [myrsinoic acid A, 3-geranyl-4-hydroxy-5-(3′-methyl-2′butenyl)-benzoic acid], the “binding to HB-EGF” value on HB-EGF was “binding”. Besides, the cell death entry in series [1] (EJ human bladder cancer cells and HCT116 human colon cancer cells (FIG. 5)) is “induces cell death”. Also, the “potencies at which apoptosis is induced” value in [1] (setting [6]) was in the range of 2.5 to 10 µM. In addition, the “number of viable cells” value in [2] (EJ, HCT116, MDA-MD486 and A549 cells, crystal-violet staining (FIG. 6)) is given as “decrease in the number viable cells”. For the same molecule, in [2] (setting [6]), the “potencies at which growth of cancer cells is suppressed” value lay in the range of 2.5 to 10 µM. In addition, in the series with EJ cells, the colony growth entry is reported as “did not show any colony growth”. Moreover, the “suppression of growth of EJ cells compared with radiation or Iressa” value with EJ cells (clonogenic assay, FIG. 9 legend) was “more effective”. Besides, the “suppression of cancer cell proliferation compared with Iressa” value in the series with EJ cancer cells was “more potent suppressor of cancer cell proliferation than Iressa”. Moreover, in series [3], the “phospho-EGFR, phospho-HER3 and phospho-AKT on longer exposure” value is reported as “long term suppression”. Moreover, the “cytotoxicity in normal cells” value in series [4] was “less cytotoxicity in normal cells than Iressa; also recorded: non-toxic”. Further, the tumor growth entry in the series with EJ cells or A549 cells is given as “significant tumor-growth suppression”. Besides, in the series with mammary tumor, the tumor mass entry was “significant reduction in tumor mass”. For the same molecule, in series [5], the anti-inflammatory activity result is listed as “act as anti-inflammatory compounds”. The DNA polymerase inhibition result in the series on DNA polymerases was “inhibitor of some DNA polymerases”.

For `CC(C)=CCCC(C)(O)C1Cc2cc(C(=O)O)cc(CC=C(C)C)c2O1` (centres unmarked) [myrsinoic acid B], the anti-inflammatory activity entry in series [5] was “act as anti-inflammatory compounds”. Also, the methioninase inhibition result in the series with methioninase is “methioninase inhibitor”.

For `CC(C)=CCC[C@]1(C)Oc2c(CC=C(C)C)cc(C(=O)O)cc2C[C@@H]1O` [myrsinoic acid C], the anti-inflammatory activity entry in series [5] was “act as anti-inflammatory compounds”.

`CC(C)=CCC/C(C)=C/Cc1cc(C(=O)O)cc(C/C=C(\C)CCC=C(C)C)c1O` [myrsinoic acid E]: in [5], the anti-inflammatory activity entry is on record as “act as anti-inflammatory compounds”.

On to `CC(C)=CC/C=C(\C)C1Cc2cc(C(=O)O)cc(CC=C(C)C)c2O1` (centres unmarked) [myrsinoic acid F], for which the anti-inflammatory activity result in [5] is recorded as “act as anti-inflammatory compounds; also recorded: most potent anti-inflammatory compound”.
